# What was measured:
# Type in all cases: cell-based
# [1] = system: MKN45; test: Anticancer activity test (MTT viability), gastric cancer cell line MKN45; conditions: for IC50: MKN45 (n=4), drug incubation 48 hours, MTT
# Experimental: (§1) 1. Gastric cancer cell lines MKN28 and MKN45 were individually seeded in 96-well plates in duplicate at 1×10^3 cells/100 μL/well (a medium (RPMI1640) containing 10% FBS was used) and incubated at 37° C. and 5% CO2 for 68 hours.
# (§2) 2. A preparation made by mixing a drug (CDDP ([PtCl2(NH3)2]) or Pd-Oqn) with the medium was dispensed into each well, and thereafter incubated at 37° C. and 5% CO2 for 48 hours.
# (§3) 3. MTT was dispensed into each well at 10 μL/well, followed by incubation at 37° C. for 4 hours. Thereafter, the absorbance at 450 nm was measured with a microplate reader, and the viability was calculated.
# [2] = system: MKN28; test: Anticancer activity test (MTT viability), gastric cancer cell line MKN28; conditions: MKN28 (n=4), drug incubation 48 hours
# Experimental: as §1, §2, §3
# [3] = system: Panc-1; test: Anticancer activity test (MTT viability), pancreatic cancer cell line Panc-1; conditions: for IC50: Panc-1 (n=4), drug incubation 48 hours, MTT
# Experimental: 1. A pancreatic cancer cell line (Panc-1) was seeded in 96-well plates in duplicate at 1×10^3 cells/100 μL/well (a medium (RPMI1640) containing 10% FBS was used) and incubated at 37° C. and 5% CO2 for 68 hours.
# as §2, §3
molecule,measurement,setting,value
"N.N.[Cl][Pt][Cl] [CDDP, [PtCl2(NH3)2], reference compound]",IC50,[1],28.2 µM
same,IC50,[2],87.2 µM
same,IC50,[3],124 µM
[Pd(GlcN=Oqn)Cl] [Pd-Oqn],IC50,[1],11.7 µM
same,anticancer activity (IC50) relative to cisplatin,"[1]; stomach cancer cells MKN45 and MKN28 together, versus cisplatin",about two to five times higher
same,IC50,[2],17.5 µM
same,IC50,[3],63.1 µM
same,anticancer activity (IC50) relative to cisplatin,"[3]; Panc-1, versus cisplatin",about two times higher

# Source: patent US9346849B2, “Amino sugar-bound anti-cancerous noble metal complex” (NATIONAL UNIVERSITY CORPORATION NARA INSTITUTE OF SCIENCE …, priority 2012, dated 2016)
